# Source: patent publication US20240336654A1, “ANTIMICROBIAL PEPTIDOMIMETICS” (SPEXIS AG, priority 2021, published 2024)
# Where a SMILES comes first, the peptide text is derived from it. Bridges are numbered along the chain shown (N, C = ends). [ ]: non-standard residue; d: D form. Hyp = O=C(O)[C@@H]1C[C@@H](O)CN1; Cit = NC(=O)NCCC[C@H](N)C(=O)O; Pen = CC(C)(S)[C@H](N)C(=O)O; dDab = NCC[C@@H](N)C(=O)O; Dab = NCC[C@H](N)C(=O)O
# Assays:
# Assay type in all cases: cell-based
# [1] = system: human red blood cells (hRBC); settings: red cells of human, 1 h, 200 μg/mL
# Protocol: Lyophilized peptides were weighed on a Microbalance (Mettler MT5) and dissolved in sterile water to a final concentration of 1 mg/mL. Stock solutions were kept at +4° C., light protected. The peptides were tested for their hemolytic activity against human red blood cells (hRBC). Fresh hRBC were washed three times with phosphate buffered saline (PBS) and centrifuged for 5 min at 3000×g. Compounds (200 μg/mL) were incubated with 20% hRBC (v/v) for 1 h at 37° C. and shaking at 300 rpm. A value of 0% and 100% cell lyses, respectively, was determined by incubation of hRBC in the presence of PBS and 2.5% Triton X-100 in H2O, respectively. The samples were centrifuged, the supernatants were 8-fold diluted in PBS buffer and the optical densities (OD) were measured at 540 nm. The 100% lyses value (OD540H2O) gave an OD540 of approximately 0.5-1.0. Percent hemolysis was calculated as follows: (OD540peptide/OD540H2O)×100%.
# [2] = system: Klebsiella pneumoniae SSI3010; settings: SSI3010
# Protocol: (§1) Lyophilized peptides were weighed on a Microbalance (Mettler MT5) and dissolved in sterile water to a final concentration of 1 mg/mL. Stock solutions were kept at +4° C., light protected.
# (§2) The selective antimicrobial activities of the peptides were determined in 96-well plates (Greiner, polystyrene) by the standard CLSI broth microdilution method (Clinical and Laboratory Standards Institute. Methods for Dilution Antimicrobial Susceptibility Tests for Bacteria That Grow Aerobically; Approved Standard-Ninth Edition. CLSI document M07-A9 (ISBN 1-56238-783-9 [Print]; ISBN 1-56238-784-7 [Electronic]). Clinical and Laboratory Standards Institute, 950 West Valley Road, Suite 2500, Wayne, Pennsylvania 19087, USA, 2012) with slight modifications.
# (§3) Colonies of the microorganisms were diluted in saline (0.85%, NaCl) and adjusted using a McFarland reader (bioMérieux SA, Marcy-l'Etoile, France) to 0.5 McFarland standard. Subsequently, the bacterial suspension was diluted in Mueller-Hinton II (MHII, cation adjusted) broth to give approximately 5×10^5 colony forming units (CFU/mL).
# (§4) Inocula of the microorganisms were diluted into Mueller-Hinton II (MH, cation adjusted) broth and compared with a 0.5 McFarland standard to give appr. 10^6 colony forming units (CFU)/mL. Aliquots (90 μl) of inoculate were added to 10 μl of water+P-80 (Polysorbate 80, 0.002% final concentration) containing the peptide in serial two-fold dilutions at 10 fold final concentration. The following microorganisms were used to determine antibiotic selectivity of the peptides: Escherichia coli ATCC 25922, Escherichia coli MCR-1 Af 45 and Klebsiella pneumoniae SSI3010. Antimicrobial activities of the peptides were expressed as the minimal inhibitory concentration (MIC) in μg/mL at which no visible growth was observed after 18-20 hours of incubation at 35° C.
# [3] = system: Escherichia coli ATCC 25922; settings: ATCC 25922
# Protocol: as §1, §2, §3, §4
# [4] = system: Escherichia coli MCR-1 Af 45; settings: MCR-1 Af 45
# Protocol: as §1, §2, §3, §4
Klebsiella pneumoniae SSI3010 MIC [2] [µg/mL],Escherichia coli ATCC 25922 MIC [3] [µg/mL],Escherichia coli MCR-1 Af45 MIC [4] [µg/mL],Structure (SMILES),Hemolysis at 0.2 g/L [1] [%]
1,0.5,0.5,"CC[C@H](C)[C@H](NC(=O)[C@@H]1C[C@@H](O)CN1C(=O)[C@@H](N)C(C)C)C(=O)N[C@@H]1C(=O)N[C@@H](Cc2ccc(O)cc2)C(=O)N[C@@H](CO)C(=O)N[C@@H](CC(N)=O)C(=O)N[C@@H](CCCNC(=N)N)C(=O)N[C@@H](C)C(=O)N[C@@H]([C@@H](C)O)C(=O)N[C@H](CCN)C(=O)N[C@@H](CCCCN)C(=O)N[C@@H](CCN)C(=O)N[C@@H](CCN)C(=O)N[C@H](C(=O)N[C@@H](Cc2ccc(O)cc2)C(=O)O)CSSC1(C)C [Example 25, Val-Hyp-Ile-Pen-Tyr-Ser-Asn-Arg-Ala-Thr-^DDab-Lys-Dab-Dab-Cys-Tyr] (H-V[Hyp]I[Pen]YSNRAT[dDab]K[Dab][Dab]CY-OH; disulfide 4-15)",<1
0.5,0.25,0.125,"CC[C@H](C)[C@H](NC(=O)[C@@H]1C[C@@H](O)CN1C(=O)[C@@H](N)C(C)C)C(=O)N[C@@H]1C(=O)N[C@@H](Cc2ccc(O)cc2)C(=O)N[C@@H](CO)C(=O)N[C@@H](CC(N)=O)C(=O)N[C@@H](CCCNC(=N)N)C(=O)N[C@H](CCN)C(=O)N[C@@H]([C@@H](C)O)C(=O)N[C@H](CCN)C(=O)N[C@@H](CCCCN)C(=O)N[C@@H](CCN)C(=O)N[C@@H](CCN)C(=O)N[C@H](C(=O)N[C@@H](Cc2ccc(O)cc2)C(=O)O)CSSC1(C)C [Example 26, Val-Hyp-Ile-Pen-Tyr-Ser-Asn-Arg-^DDab-Thr-^DDab-Lys-Dab-Dab-Cys-Tyr] (H-V[Hyp]I[Pen]YSNR[dDab]T[dDab]K[Dab][Dab]CY-OH; disulfide 4-15)",<1
0.5,0.25,0.25,"CC[C@H](C)[C@H](NC(=O)[C@@H]1C[C@@H](O)CN1C(=O)[C@@H](N)C(C)C)C(=O)N[C@@H]1C(=O)N[C@@H](Cc2ccc(O)cc2)C(=O)N[C@@H](CO)C(=O)N[C@@H](CC(N)=O)C(=O)N[C@@H](CCCNC(=N)N)C(=O)N[C@@H](CCCNC(N)=O)C(=O)N[C@@H]([C@@H](C)O)C(=O)N[C@H](CCN)C(=O)N[C@@H](CCCCN)C(=O)N[C@@H](CCN)C(=O)N[C@@H](CCN)C(=O)N[C@H](C(=O)N[C@@H](Cc2ccc(O)cc2)C(=O)O)CSSC1(C)C [Example 27, Val-Hyp-Ile-Pen-Tyr-Ser-Asn-Arg-Cit-Thr-^DDab-Lys-Dab-Dab-Cys-Tyr] (H-V[Hyp]I[Pen]YSNR[Cit]T[dDab]K[Dab][Dab]CY-OH; disulfide 4-15)",<1

# Further lines, the compound ahead of its results:
Structure (SMILES),Klebsiella pneumoniae SSI3010 MIC [2] [µg/mL],Escherichia coli ATCC 25922 MIC [3] [µg/mL],Escherichia coli MCR-1 Af45 MIC [4] [µg/mL],Hemolysis at 0.2 g/L [1] [%]
"CC[C@H](C)[C@H](NC(=O)[C@@H]1C[C@@H](O)CN1C(=O)[C@@H](N)C(C)C)C(=O)N[C@@H]1C(=O)N[C@@H](Cc2ccc(O)cc2)C(=O)N[C@@H]([C@@H](C)O)C(=O)N[C@@H](CC(N)=O)C(=O)N[C@@H](CCCNC(=N)N)C(=O)N[C@@H](CCN)C(=O)N[C@@H](CC(N)=O)C(=O)N[C@H](CCN)C(=O)N[C@@H](CCCCN)C(=O)N[C@@H](CCN)C(=O)N[C@@H](CCN)C(=O)N[C@H](C(=O)N[C@@H](Cc2ccc(O)cc2)C(=O)O)CSSC1(C)C [Example 19, Val-Hyp-Ile-Pen-Tyr-Thr-Asn-Arg-Dab-Asn-^DDab-Lys-Dab-Dab-Cys-Tyr] (H-V[Hyp]I[Pen]YTNR[Dab]N[dDab]K[Dab][Dab]CY-OH; disulfide 4-15)",0.25,0.125,0.125,<1
"CC[C@H](C)[C@H](NC(=O)[C@@H]1C[C@@H](O)CN1C(=O)[C@@H](N)C(C)C)C(=O)N[C@@H]1C(=O)N[C@@H](Cc2ccc(O)cc2)C(=O)N[C@@H](CO)C(=O)N[C@@H](C)C(=O)N[C@@H](CCCNC(=N)N)C(=O)N[C@@H](CCN)C(=O)N[C@@H]([C@@H](C)O)C(=O)N[C@H](CCN)C(=O)N[C@@H](CCCCN)C(=O)N[C@@H](CCN)C(=O)N[C@@H](CCN)C(=O)N[C@H](C(=O)N[C@@H](Cc2ccc(O)cc2)C(=O)O)CSSC1(C)C [Example 20, Val-Hyp-Ile-Pen-Tyr-Ser-Ala-Arg-Dab-Thr-^DDab-Lys-Dab-Dab-Cys-Tyr] (H-V[Hyp]I[Pen]YSAR[Dab]T[dDab]K[Dab][Dab]CY-OH; disulfide 4-15)",1,0.5,0.5,<1
"CC[C@H](C)[C@@H]1NC(=O)[C@H](CO)NC(=O)[C@H](Cc2ccc(O)cc2)NC(=O)[C@@H](NC(=O)[C@@H](NC(=O)[C@@H]2C[C@@H](O)CN2C(=O)[C@@H](N)C(C)C)[C@@H](C)CC)C(C)(C)SSC[C@@H](C(=O)N[C@@H](Cc2ccc(O)cc2)C(=O)O)NC(=O)[C@H](CCN)NC(=O)[C@H](CCN)NC(=O)[C@H](CCCCN)NC(=O)[C@@H](CCN)NC(=O)[C@H]([C@@H](C)O)NC(=O)[C@H](CCN)NC(=O)[C@H](CCCNC(=N)N)NC1=O [Example 21, Val-Hyp-Ile-Pen-Tyr-Ser-Ile-Arg-Dab-Thr-^DDab-Lys-Dab-Dab-Cys-Tyr] (H-V[Hyp]I[Pen]YSIR[Dab]T[dDab]K[Dab][Dab]CY-OH; disulfide 4-15)",0.125,0.0625,0.0625,<1
"CC[C@H](C)[C@H](NC(=O)[C@@H]1C[C@@H](O)CN1C(=O)[C@@H](N)C(C)C)C(=O)N[C@@H]1C(=O)N[C@@H](Cc2ccc(O)cc2)C(=O)N[C@@H](CO)C(=O)N[C@@H](CCC(=O)O)C(=O)N[C@@H](CCCNC(=N)N)C(=O)N[C@@H](CCN)C(=O)N[C@@H]([C@@H](C)O)C(=O)N[C@H](CCN)C(=O)N[C@@H](CCCCN)C(=O)N[C@@H](CCN)C(=O)N[C@@H](CCN)C(=O)N[C@H](C(=O)N[C@@H](Cc2ccc(O)cc2)C(=O)O)CSSC1(C)C [Example 22, Val-Hyp-Ile-Pen-Tyr-Ser-Glu-Arg-Dab-Thr-^DDab-Lys-Dab-Dab-Cys-Tyr] (H-V[Hyp]I[Pen]YSER[Dab]T[dDab]K[Dab][Dab]CY-OH; disulfide 4-15)",0.5,0.5,0.25,<1
"CC[C@H](C)[C@H](NC(=O)[C@@H]1C[C@@H](O)CN1C(=O)[C@@H](N)C(C)C)C(=O)N[C@@H]1C(=O)N[C@@H](Cc2ccc(O)cc2)C(=O)N[C@@H](CO)C(=O)N[C@@H](CC(=O)O)C(=O)N[C@@H](CCCNC(=N)N)C(=O)N[C@@H](CCN)C(=O)N[C@@H]([C@@H](C)O)C(=O)N[C@H](CCN)C(=O)N[C@@H](CCCCN)C(=O)N[C@@H](CCN)C(=O)N[C@@H](CCN)C(=O)N[C@H](C(=O)N[C@@H](Cc2ccc(O)cc2)C(=O)O)CSSC1(C)C [Example 23, Val-Hyp-Ile-Pen-Tyr-Ser-Asp-Arg-Dab-Thr-^DDab-Lys-Dab-Dab-Cys-Tyr] (H-V[Hyp]I[Pen]YSDR[Dab]T[dDab]K[Dab][Dab]CY-OH; disulfide 4-15; N-terminus assumed)",0.5,0.5,0.25,<1
"CC[C@H](C)[C@H](NC(=O)[C@@H]1C[C@@H](O)CN1C(=O)[C@@H](N)C(C)C)C(=O)N[C@@H]1C(=O)N[C@@H](Cc2ccc(O)cc2)C(=O)N[C@@H](CO)C(=O)N[C@@H](CO)C(=O)N[C@@H](CCCNC(=N)N)C(=O)N[C@@H](CCN)C(=O)N[C@@H]([C@@H](C)O)C(=O)N[C@H](CCN)C(=O)N[C@@H](CCCCN)C(=O)N[C@@H](CCN)C(=O)N[C@@H](CCN)C(=O)N[C@H](C(=O)N[C@@H](Cc2ccc(O)cc2)C(=O)O)CSSC1(C)C [Example 24, Val-Hyp-Ile-Pen-Tyr-Ser-Ser-Arg-Dab-Thr-^DDab-Lys-Dab-Dab-Cys-Tyr] (H-V[Hyp]I[Pen]YSSR[Dab]T[dDab]K[Dab][Dab]CY-OH; disulfide 4-15)",0.25,0.125,0.125,<1
